System: adults with plaque psoriasis
Test: Long-term extension study (PSOARING 3): % BSA affected
Format: in vivo, human
Method: The % BSA affected is an estimate of the percentage of total involved skin with psoriasis. For the purpose of clinical estimation, the total palmar surface of the subject's palm and digits was assumed to be approximately equivalent to 1% BSA. The % BSA affected by psoriasis was evaluated (from 0% to 100%). Details on calculation of approximate % BSA involvement in each subject (total and individual) can be found in Appendix 2 of the protocol. Percent BSA is a static assessment made without reference to previous scores.
At Screening, Baseline, and for all efficacy assessments, lesions on the subject's scalp, palms, fingernails, toenails, and soles were not included in the calculation of % BSA affected as these areas were excluded from the efficacy analyses.

[1] = Week 16 LOCF, Tapinarof (Pivotal)
[2] = Week 16 LOCF, Vehicle (Pivotal)
[3] = Week 16 OC, Tapinarof (Pivotal)
[4] = Week 40 LOCF, Tapinarof (Pivotal)
[5] = Week 40 LOCF, Vehicle (Pivotal)
[6] = Week 40 OC, Tapinarof (Pivotal)

CC(C)c1c(O)cc(/C=C/c2ccccc2)cc1O [Tapinarof Cream 1%]
% BSA affected, Observed, Mean (Baseline, Overall): 4.65 % BSA | % BSA affected, Observed, Median (Baseline, Overall): 3.00 % BSA | % BSA affected, Observed, Mean (Baseline, Tapinarof (Pivotal)): 3.31 % BSA | % BSA affected, Observed, Median (Baseline, Tapinarof (Pivotal)): 2.00 % BSA | % BSA affected, CFBL, Mean (Week 16 LOCF, Overall): −1.85 % BSA | % BSA affected, CFBL, Median (Week 16 LOCF, Overall): −0.96 % BSA | % BSA affected, Observed, Mean (Week 16 LOCF, Overall): 2.82 % BSA | % BSA affected, Observed, Median (Week 16 LOCF, Overall): 1.20 % BSA | % BSA affected, Percent CFBL, Mean (Week 16 LOCF, Overall): −20.99% | % BSA affected, Percent CFBL, Median (Week 16 LOCF, Overall): −46.13% | % BSA affected, CFBL, Mean [1]: −0.77 % BSA | % BSA affected, CFBL, Median [1]: −0.20 % BSA | % BSA affected, Observed, Mean [1]: 2.54 % BSA | % BSA affected, Observed, Median [1]: 1.00 % BSA | % BSA affected, Percent CFBL, Mean [1]: −5.67% | % BSA affected, Percent CFBL, Median [1]: −33.33% | % BSA affected, CFBL, Mean [2]: −3.96 % BSA | % BSA affected, CFBL, Median [2]: −2.98 % BSA | % BSA affected, Observed, Mean [2]: 3.36 % BSA | % BSA affected, Observed, Median [2]: 1.80 % BSA | % BSA affected, Percent CFBL, Mean [2]: −47.15% | % BSA affected, Percent CFBL, Median [2]: −63.42% | % BSA affected, CFBL, Mean (Week 16 OC, Overall): −2.11 % BSA | % BSA affected, CFBL, Median (Week 16 OC, Overall): −1.00 % BSA | % BSA affected, Observed, Mean (Week 16 OC, Overall): 2.28 % BSA | % BSA affected, Observed, Median (Week 16 OC, Overall): 1.02 % BSA | % BSA affected, Percent CFBL, Mean (Week 16 OC, Overall): −31.25% | % BSA affected, Percent CFBL, Median (Week 16 OC, Overall): −50.00% | % BSA affected, CFBL, Mean [3]: −0.97 % BSA | % BSA affected, CFBL, Median [3]: −0.23 % BSA | % BSA affected, Observed, Mean [3]: 1.97 % BSA | % BSA affected, Observed, Median [3]: 1.00 % BSA | % BSA affected, Percent CFBL, Mean [3]: −18.46% | % BSA affected, Percent CFBL, Median [3]: −36.96% | % BSA affected, CFBL, Mean (Week 16 OC, Vehicle (Pivotal)): −4.40 % BSA | % BSA affected, CFBL, Median (Week 16 OC, Vehicle (Pivotal)): −3.18 % BSA | % BSA affected, Observed, Mean (Week 16 OC, Vehicle (Pivotal)): 2.89 % BSA | % BSA affected, Observed, Median (Week 16 OC, Vehicle (Pivotal)): 1.50 % BSA | % BSA affected, Percent CFBL, Mean (Week 16 OC, Vehicle (Pivotal)): −53.18% | % BSA affected, Percent CFBL, Median (Week 16 OC, Vehicle (Pivotal)): −66.67% | % BSA affected, CFBL, Mean (Week 40 LOCF, Overall): −2.04 % BSA | % BSA affected, CFBL, Median (Week 40 LOCF, Overall): −1.00 % BSA | % BSA affected, Observed, Mean (Week 40 LOCF, Overall): 2.63 % BSA | % BSA affected, Observed, Median (Week 40 LOCF, Overall): 1.00 % BSA | % BSA affected, Percent CFBL, Mean (Week 40 LOCF, Overall): −16.29% | % BSA affected, Percent CFBL, Median (Week 40 LOCF, Overall): −55.78% | % BSA affected, CFBL, Mean [4]: −0.88 % BSA | % BSA affected, CFBL, Median [4]: −0.30 % BSA | % BSA affected, Observed, Mean [4]: 2.44 % BSA | % BSA affected, Observed, Median [4]: 1.00 % BSA | % BSA affected, Percent CFBL, Mean [4]: −0.11% | % BSA affected, Percent CFBL, Median [4]: −46.61% | % BSA affected, CFBL, Mean [5]: −4.33 % BSA | % BSA affected, CFBL, Median [5]: −3.30 % BSA | % BSA affected, Observed, Mean [5]: 2.99 % BSA | % BSA affected, Observed, Median [5]: 1.00 % BSA | % BSA affected, Percent CFBL, Mean [5]: −43.91% | % BSA affected, Percent CFBL, Median [5]: −75.06% | % BSA affected, CFBL, Mean (Week 40 OC, Overall): −2.35 % BSA | % BSA affected, CFBL, Median (Week 40 OC, Overall): −1.50 % BSA | % BSA affected, Observed, Mean (Week 40 OC, Overall): 1.85 % BSA | % BSA affected, Observed, Median (Week 40 OC, Overall): 0.72 % BSA | % BSA affected, Percent CFBL, Mean (Week 40 OC, Overall): −35.43% | % BSA affected, Percent CFBL, Median (Week 40 OC, Overall): −67.00% | % BSA affected, CFBL, Mean [6]: −0.93 % BSA | % BSA affected, CFBL, Median [6]: −0.49 % BSA | % BSA affected, Observed, Mean [6]: 1.75 % BSA | % BSA affected, Observed, Median [6]: 0.68 % BSA | % BSA affected, Percent CFBL, Mean [6]: −21.60% | % BSA affected, Percent CFBL, Median [6]: −57.39% | % BSA affected, CFBL, Mean (Week 40 OC, Vehicle (Pivotal)): −5.30 % BSA | % BSA affected, CFBL, Median (Week 40 OC, Vehicle (Pivotal)): −4.49 % BSA | % BSA affected, Observed, Mean (Week 40 OC, Vehicle (Pivotal)): 2.07 % BSA | % BSA affected, Observed, Median (Week 40 OC, Vehicle (Pivotal)): 0.80 % BSA | % BSA affected, Percent CFBL, Mean (Week 40 OC, Vehicle (Pivotal)): −60.22%

Reference: patent US20220395472A1 (Dermavant Sciences GmbH, priority 2021, published 2022)
